Results from article PMC11773474, “Roles for Prlhr/GPR10 and Npffr2/GPR74 in feeding responses to PrRP” (Molecular Metabolism, 2025).

Assays:
GPR147 = conditions: cited from earlier work
From the text: Thus, PrRP analogs like p52 might act via GPR147 to decrease food intake. It is not clear whether p52 and other PrRP analogs can suppress food intake via GRP10 and/or GPR74 in the absence of GPR147, but it would be interesting to assess this possibility, as well as potential roles for each of these rece ...

[1] = Pharmacokinetics: clearance of p52 from the blood of mice; assay type: in vivo, mouse; conditions: LC-MS, n=6/group
Method: Supplemental Figure 2 . Quality analysis, in v itro potency, and clearance from the blood of mice for p52. A Analytical RP-HPLC spectrum for p52 was recorded using an Agilent 1260 Infinity system. B Spectrographic data from the analysis of purified p52 by single quadrupolar LC/MS using a Waters Mass Lynx 3100 platform. C Peptide in vitro potencies determined in CHO cells transfected with mouse GPR10 or GPR74 receptor.
For GPR74 potency was determined for peptide mediated inhibition of forskolin stimulated cAMP accumulation, as described (48). For GPR10 potency was determined in calcium mobilization assay in cells incubated with FLuo- 4AM calcium assay kit and measured on a FLIPR TETRA (Molecular Devices, Sunnyvale, CA). Shown are log(1/EC50) (1/nM) values for cAMP generation via GRP10 and GPR74 for p52, PrRP-31, and NPFF. ND- not detected. D Mice were injected with the indicated doses of p52.
Blood was drawn at the indicated times after dosing and p52 was quantified by LC-MS.
Shown are mean +/- STD; individual measurements are shown, as well; n=6/group. ND - […]
(1 picture or pasted object on this page, not shown here)

Row | Compound | affinity for GPR147 (GPR147) | p52 detectable in the circulation for at least 4 h ([1]; dose 1.5 mg/kg) | time p52 remained detectable in the circulation ([1]; dose 5 mg/kg)
1 | prolactin releasing peptide [PrRP] | measurable (albeit low) affinity |  | 
2 | CCCCCCCCCCCCCCCC(=O)N[C@@H](CO)C(=O)N[C@@H](CCCNC(=N)N)C(=O)N[C@H](C(=O)N[C@@H](Cc1c[nH]cn1)C(=O)N[C@@H](CCCNC(=N)N)C(=O)N[C@@H](Cc1c[nH]cn1)C(=O)N[C@@H](CO)C(=O)N[C@@H](CCCC)C(=O)N[C@@H](CCC(=O)O)C(=O)N[C@H](C(=O)N[C@@H](CCCNC(=N)N)C(=O)N[C@H](C(=O)N1CCC[C@H]1C(=O)N[C@@H](CC(=O)O)C(=O)N[C@H](C(=O)N[C@@H](CC(N)=O)C(=O)N1CCC[C@H]1C(=O)N[C@@H](C)C(=O)N[C@@H](Cc1c[nH]c2ccccc12)C(=O)N[C@@H](Cc1ccc(O)cc1)C(=O)N[C@@H](C)C(=O)N[C@@H](CO)C(=O)N[C@@H](CCCNC(=N)N)C(=O)NCC(=O)N[C@H](C(=O)N[C@@H](CCCNC(=N)N)C(=O)N1CCC[C@H]1C(=O)N[C@H](C(=O)NCC(=O)N[C@@H](CCCNC(=N)N)C(=O)N[C@@H](Cc1ccc([N+](=O)[O-])cc1)C(N)=O)C(C)C)[C@@H](C)CC)[C@@H](C)CC)[C@@H](C)O)[C@@H](C)CC)[C@@H](C)O [p52] |  | not | at least 4 h
